Reference: patent US12290535B2, “Langerin+ cell targeting” (Max-Planck-Gesellschaft zur Förderung der Wissenschaften …, priority 2018, dated 2025)

What was measured:
DC-SIGN CRD = biological target: T1, DC-SIGN CRD (Homo sapiens, UniProt Q9NNX6); assay: 19F R2-filtered NMR reporter displacement assay transferred to DC-SIGN; format: binding; conditions: 19F R2-filtered NMR, DC-SIGN CRD 50 μM, pH 7.0, 25° C.
T1 construct: residues 205 to 404; TEV site (C); StreptagII (C); made in house; host or cells: E. coli BL21* (DE3)
T1 sequence (Q9NNX6 250-404): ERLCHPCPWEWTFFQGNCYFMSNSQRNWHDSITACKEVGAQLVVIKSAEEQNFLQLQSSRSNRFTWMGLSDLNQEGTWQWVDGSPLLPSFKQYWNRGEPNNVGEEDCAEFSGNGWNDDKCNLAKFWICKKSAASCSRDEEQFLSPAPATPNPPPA
Experimental: Langerin and DC-SIGN carbohydrate recognition domain. Expression and purification were conducted as previously published. Briefly, the monomeric ^15N-labeled Langerin and DC-SIGN carbohydrate recognition domains (CRDs) were expressed insolubly in E. coli BL21* (DE3) (Invitrogen). Following enzymatic cell lysis, inclusion bodies were harvested and subsequently solubilized. The sample was centrifuged and the Langerin and DC-SIGN CRDs were refolded overnight via rapid dilution. Next, the sample was dialyzed overnight, centrifuged and purified via StrepTactin affinity chromatography (Iba). After an additional dialysis step overnight, the sample was centrifuged and the buffer was exchanged to 25 mM HEPES with 150 mM NaCl at pH 7.0 using 7 kDa size-exclusion desalting columns (Thermo Scientific) for ^19F R2-filtered and ^15N HSQC NMR experiments. The concentration of Langerin and DC-SIGN CRDs was determined via UV spectroscopy (A280, 0.1%=3.19 and A280, 0.1%=2.98). Purity and monodispersity of Langerin and DC-SIGN CRD samples were analyzed via SDS PAGE and DLS.
General remarks. ^19F R2-filtered NMR experiments were conducted on a PremiumCompact 600 MHz spectrometer (Agilent). […] Apparent relaxation rates R2,obs for the reporter ligand were determined using the CPMG pulse sequence as previously published (Wamhoff, E. C. et al. (19)F Nmr-Guided Design of Glycomimetic Langerin Ligands. ACS Chem Biol, 11, 2407-13 (2016): Carr, H. Y. & Purcell, E. M. Effects of Diffusion on Free Precession in Nuclear Magnetic Resonance Experiments. Phys Rev, 94, 630-638 (1954); Meiboom, S. & Gill, D. Modified Spin-Echo Method for Measuring Nuclear Relaxation Times. Rev Sci Instrum 29, 688-691 (1958)).
Assay development for DC-SIGN. […] Briefly, the KD value and the relaxation rate in bound state R2,b were determined at five concentrations [L]T of reporter ligand 24 in three independent titration experiments. […]
Ki determination. Ki values were determined as previously published for Langerin (Wamhoff, E. C. et al. (19)F NMR-Guided Design of Glycomimetic Langerin Ligands. ACS Chem Biol 11, 2407-13 (2016)). […]

Langerin ECD = biological target: T2, Langerin ECD (Homo sapiens, UniProt Q9UJ71, V278A); assay: 19F R2-filtered NMR reporter displacement assay (Ki determination); format: binding; conditions: Langerin ECD 50 μM, pH 7.8, 25° C.
T2 construct: residues 148 to 328; TEV site (C); StreptagII (C); made in house; host or cells: E. coli BL21* (DE3)
T2 sequence (Q9UJ71 148-328 V278A): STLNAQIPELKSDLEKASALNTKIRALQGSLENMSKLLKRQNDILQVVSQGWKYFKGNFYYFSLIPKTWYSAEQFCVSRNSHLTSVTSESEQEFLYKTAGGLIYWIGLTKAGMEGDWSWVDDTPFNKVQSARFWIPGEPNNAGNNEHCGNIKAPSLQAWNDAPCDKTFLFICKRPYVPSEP
Experimental: Langerin extracellular domain. Expression and purification were conducted as previously published (Wamhoff, E. C. et al. (19)F Nmr-Guided Design of Glycomimetic Langerin Ligands. ACS Chem Biol, 11, 2407-13 (2016)). Briefly, the trimeric Langerin extracellular domain (ECD) was expressed insolubly in E. coli BL21* (DE3) (Invitrogen). Following enzymatic cell lysis, inclusion bodies were harvested and subsequently solubilized. The sample was centrifuged and the Langerin ECD was refolded overnight via rapid dilution. Next, the sample was dialyzed overnight, centrifuged and purified via mannan-agarose affinity chromatography (Sigma Aldrich). For ^19F R2-filtered NMR and lipid-enzyme-linked lectin assay (Lipid-ELLA) experiments, the buffer was exchanged to 25 mM Tris with 150 mM NaCl and 5 mM CaCl2 at pH 7.8 using 7 kDa size-exclusion desalting columns (Thermo Scientific). For STD NMR experiments, Langerin ECD samples were dialyzed five times for at least 8 h against H2O. Subsequently, the H2O was removed via lyophilization and the residue was stored at −80° C. Prior to STD NMR experiments, the Langerin ECD was dissolved in 25 mM Tris-d11 (Eurisotope) with 100% D2O, 150 mM NaCl and 5 mM CaCl2 at pH 7. The concentration of Langerin ECD was determined via UV spectroscopy (A280, 0.1%=2.45). Purity and monodispersity of Langerin ECD samples were analyzed via SDS PAGE and DLS.
General remarks. ^19F R2-filtered NMR experiments were conducted on a PremiumCompact 600 MHz spectrometer (Agilent). Spectra were processed in MestReNova and data analysis was performed with OriginPro (Mestrelab Research. Mestrenova. 11.0.2. (2016); OriginLab. Originpro. 9.1. (2015)). Experiments with the Langerin ECD were performed at a receptor concentration of 50 μM in 25 mM Tris with 10% D2O, 150 mM NaCl and 5 mM CaCl2 at pH 7.8 and 25° C. Experiments with the DC-SIGN CRD were performed at a receptor concentration of 50 μM in 25 mM HEPES with 10% D2O, 150 mM NaCl and 5 mM CaCl2 at pH 7.0 and 25° C. TFA served as an internal reference at a concentration of 50 μM. Apparent relaxation rates R2,obs for the reporter ligand were determined using the CPMG pulse sequence as previously published (Wamhoff, E. C. et al. (19)F Nmr-Guided Design of Glycomimetic Langerin Ligands. ACS Chem Biol, 11, 2407-13 (2016): Carr, H. Y. & Purcell, E. M. Effects of Diffusion on Free Precession in Nuclear Magnetic Resonance Experiments. Phys Rev, 94, 630-638 (1954); Meiboom, S. & Gill, D. Modified Spin-Echo Method for Measuring Nuclear Relaxation Times. Rev Sci Instrum 29, 688-691 (1958)).
Ki determination. Ki values were determined as previously published for Langerin (Wamhoff, E. C. et al. (19)F NMR-Guided Design of Glycomimetic Langerin Ligands. ACS Chem Biol 11, 2407-13 (2016)). Briefly, titration experiments were conducted at a concentration of 0.1 mM of reporter ligand 24 at five competitor concentrations [I]T. Samples were prepared via serial dilution. For the acids GlcNS, GlcNAc-6-OS and GlcNS-6-OS the pH values were monitored and adjusted to 7.8 if necessary.

Langerin+ cells = assay: in vitro cytotoxicity, Annexin-V / 7-AAD staining; format: cell-based; conditions: 50% DMSO for 3 min, positive control
Experimental: Liposomes consist mainly of phospholipids and cholesterol. […] As a positive control, cells were treated for 3 min with 50% DMSO. Untreated cells were applied as negative controls. Cells were washed and resuspended in 25 μl buffer (10 mM HEPES, 140 mM NaCl and 2.5 mM CaCl2), pH7.4) containing 1:100 diluted Annexin-V-FITC (Adipogen). Cells were incubated for 10 min in the dark at room temperature. After washing, cells were resuspended in 100 μl buffer containing 1 μl 7-AAD solution (Biolegend) and incubated for 5-10 min in the dark at room temperature. Cells were directly measured without any further washing steps by flow cytometry. […] Annexin-V was detected with a 530/30 filter, 7-AAD with a 695/40 filter and Alexa647 with a 670/14 filter (Attune Nxt, life technologies). […] Langerin targeted liposomes were incubated with cells for extended time periods up to 72 h, and cell toxicity was subsequently analyzed (see FIG. 17).
Early apoptotic effects were detected with Annexin-V staining that binds translocated phosphatidylserine, whereas late apoptotic cells were stained with 7-AAD a cell impermeable fluorescent intercalator that associates to DNA and undergoes a spectral shift. […] After doublet discrimination, single cells were analyzed for Annexin-V-FITC and 7-AAD staining in a bivariate histogram by dividing the plot in four quadrants. […]

hLangerin+ Raji cells = assay: cell-based binding and internalization assay of functionalized GFP; design: species or system human; conditions: 4° C., in words
Experimental: In FIG. 21 (A) the binding and uptake of functionalized GFP at 4° C. and 37° C. was dose-dependently measured by flow cytometry with Raji and Langerin^+ Raji cells. In FIG. 21 (B) GFP and liposomes were incubated for various time points with Langerin^+ Raji cells. Here, FITC-BSA encapsulated liposomes were utilized to compare the FITC fluorescence with the GFP fluorescence.
Functionalized GFP was then tested in a cell-based binding and internalization assay. Both GlcNTosyl functionalized GFP and unconjugated GFP were incubated with WT or hLangerin^+ Raji cells at 4° C. and at 37° C. for 1 h or 2 h, respectively (see FIG. 21). Targeted GFP specifically bound to Langerin expressing cells and saturated at concentrations above 1 μg/ml (see FIG. 21 (A)). […] GFP fluorescence was slightly elevated compared to the binding assay and also saturated above 1 μg/ml.

DC-SIGN = biological target: T3, DC-SIGN (Homo sapiens, UniProt Q9NNX6); conditions: literature; cited from earlier work
T3 sequence (Q9NNX6 1-404): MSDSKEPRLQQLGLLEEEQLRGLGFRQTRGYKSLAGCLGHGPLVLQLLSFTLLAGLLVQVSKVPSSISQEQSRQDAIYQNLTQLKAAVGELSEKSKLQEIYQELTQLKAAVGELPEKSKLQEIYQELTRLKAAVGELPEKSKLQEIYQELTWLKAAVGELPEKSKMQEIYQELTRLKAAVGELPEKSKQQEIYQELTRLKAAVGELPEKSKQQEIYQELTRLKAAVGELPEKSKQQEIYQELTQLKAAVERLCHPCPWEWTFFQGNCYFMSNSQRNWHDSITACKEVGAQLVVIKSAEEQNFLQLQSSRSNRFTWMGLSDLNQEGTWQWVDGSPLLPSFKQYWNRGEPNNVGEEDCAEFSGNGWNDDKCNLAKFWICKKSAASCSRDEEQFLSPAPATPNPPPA

Row | Ki (Langerin ECD) | Compound | other results
1 | 4500 ± 500 µM | O=C[C@@H](O)[C@@H](O)[C@H](O)[C@H](O)CO [Man, mannose] | Ki (DC-SIGN CRD): 3000 ± 300 µM
2 | 600 ± 100 µM | CC(=O)N[C@H]1C(O)O[C@H](COS(=O)(=O)O)[C@@H](O)[C@@H]1O (stereo partly shown) [GlcNAc-6-OS, N-acetyl glucosamine-6-sulfate] | 
3 |  | C[S+](C)[O-] [DMSO] | dead cells (Langerin+ cells): 98%
4 | 1400 ± 200 µM | O=S(=O)(O)N[C@H]1C(O)O[C@H](CO)[C@@H](O)[C@@H]1O (stereo partly shown) [GlcNS, glucosamine-2-sulfate] | 
5 |  | Unconjugated GFP: Green Fluorescence Protein without ligand, SEQ ID NO: 82 | fluorescence signal (hLangerin+ Raji cells): did not show increased fluorescence signals
6 | 4100 ± 700 µM | CC(=O)N[C@H]1C(O)O[C@H](CO)[C@@H](O)[C@@H]1O (stereo partly shown) [GlcNAc, N-acetyl glucosamine] | 
7 |  | CC(=O)N[C@H]1C(O)O[C@H](CO)[C@@H](O[C@@H]2O[C@H](CO)[C@H](O)[C@H](O)[C@H]2O)[C@@H]1O[C@@H]1O[C@@H](C)[C@@H](O)[C@@H](O)[C@@H]1O (stereo partly shown) [Le^X] | Kd (DC-SIGN): ~1000 µM
8 | 21000 ± 4000 µM | OC[C@H]1OC(O)[C@H](O)[C@@H](O)[C@@H]1O (stereo partly shown) [Glc] | 
9 | 280 ± 60 µM | O=S(=O)(O)N[C@H]1C(O)O[C@H](COS(=O)(=O)O)[C@@H](O)[C@@H]1O (stereo partly shown) [GlcNS-6-OS, glucosamine-2-sulfate-6-sulfate] | 
